Laboratory results from patent publication US12037324B2, “Biarylmethyl heterocycles” (Université de Montréal, priority 2016, dated 2024).

How the values were obtained:
hAT1R [1] = biological target: T1, hAT1R (Homo sapiens, UniProt P30556); assay: cell-based; conditions: agonist mode; for EC50: read-out: BRET P63 EC50
T1 sequence (P30556 1-359): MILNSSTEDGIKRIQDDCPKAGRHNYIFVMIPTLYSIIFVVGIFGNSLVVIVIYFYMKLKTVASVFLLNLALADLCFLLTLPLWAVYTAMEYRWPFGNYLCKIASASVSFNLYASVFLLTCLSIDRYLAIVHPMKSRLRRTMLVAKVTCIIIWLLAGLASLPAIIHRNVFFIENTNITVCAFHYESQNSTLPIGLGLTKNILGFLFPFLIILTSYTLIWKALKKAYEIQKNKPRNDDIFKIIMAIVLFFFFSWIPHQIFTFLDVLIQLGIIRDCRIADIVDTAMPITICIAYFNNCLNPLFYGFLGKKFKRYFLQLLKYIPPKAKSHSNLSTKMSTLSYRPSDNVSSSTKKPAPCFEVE

AGTR1 [2] = biological target: T2, AGTR1 (Homo sapiens, UniProt P30556); assay: DiscoveRx β-arrestin2 recruitment assay (enzyme complementation, Pathunter CHO-K1 AGTR1 β-arrestin cell line); assay type: cell-based; conditions: DiscoveRx β-arrestin2 recruitment; for DiscoveRx β-arrestin2 Ymax (%): maximal response
T2 construct: host or cells: Pathunter CHO-K1 AGTR1 β-arrestin cell line (CHO-K1)
T2 sequence (P30556 1-359): T1 sequence (P30556 1-359)
Outline: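 Chemiluminescent enzyme-complementation read-out of β-arrestin2 recruitment to AGTR1 in engineered CHO-K1 cells after 90 min compound exposure at 37° C. Values are 4-parameter logistic EC50s in agonist mode, IC50s in antagonist mode, with efficacy relative to the maximal All response.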

hAT1R [3] = biological target: T1, hAT1R; assay: BRET β-arrestin2 biosensor assay, higher receptor expression (hAT1R 5 ng/well), HEK293 cells; assay type: cell-based; conditions: for EC50: High AT1R Expression
hAT1R [4] = biological target: T1, hAT1R; assay: cell-based
AGTR1 [5] = biological target: T2, AGTR1; assay: DiscoveRx IP1 accumulation assay (HTRF), agonist mode, Pathunter CHO-K1 AGTR1 β-arrestin cell line; assay type: cell-based; conditions: for EC50: read-out: IP-1 EC50
Outline: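 Agonist mode in CHO-K1 AGTR1 β-arrestin cells plated 14-16 h before; compounds at varying concentrations for 90 min at 37° C, IP1 accumulation read by HTRF (D2-conjugate and anti-IP1 cryptate, 20 min room temperature). EC50 from 4-parameter logistic fit; activity given as percentage of maximal AII effect.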

[6] = section of the 42nd table ending at r951, example numbering restarts after the DiscoveRx section, read-out: β-arrestin2 EC50
[7] = Low AT1R Expression, read-out: BRET β-Arrestin2 Low AT1R Expression EC50

Structure (SMILES) | BRET P63 Ymax (hAT1R [1]) | EC50 (hAT1R [1]) | EC50 (AGTR1 [2]) | DiscoveRx β-arrestin2 Ymax (%) (AGTR1 [2]) | BRET β-Arrestin2 High AT1R Expression Ymax (%) (hAT1R [3]) | EC50 (hAT1R [3]) | EC50 (hAT1R [4]; [6]) | IP-1 Ymax (%) (AGTR1 [5]) | EC50 (AGTR1 [5]) | BRET β-Arrestin2 Low AT1R Expression Ymax (%) (hAT1R [4]; Low AT1R Expression) | EC50 (hAT1R [4]; [7])
CCc1nc2c(C)cc(C)nc2n1Cc1ccc(-c2cc(-c3ccccc3)ccc2-c2nsc(=O)[nH]2)cc1 [Example 245] | 23.3% | 27.2 nM | 115 nM | 75.5% | 88.8% | 4.9 nM | 24.1 nM | 12.7% | 89.4 nM | – | –
CCc1nc2c(C)cc(C)nc2n1Cc1ccc(-c2cc(-c3cccc(C)c3)ccc2C(=O)O)cn1 [Example 195, 3-(6-((2-ethyl-5,7-dimethyl-3H-imidazo[4,5-b]pyridin-3-yl)methyl)pyridin-3-yl)-3′-methylbiphenyl-4-carboxylic acid] | 13.6% | 264 nM | 694 nM | 77.6% | 87.0% | 101 nM | 282 nM | 5.3% | 358 nM | – | –
CCc1nc2c(C)cc(C)nc2n1Cc1ccc(-c2cc(-c3ccc(CO)cc3)ccc2-c2nn[nH]n2)cc1 [Example 63] | 12.4% | 23.2 nM | 10.2 nM | 26.1% | 76.6% | 7.5 nM | – | 21.4% | 51.3 nM | 59.3% | 26.5 nM
CCc1nc2c(C)cc(C)nc2n1Cc1ccc(-c2cc(-c3ccccn3)ccc2-c2nn[nH]n2)cc1 [Example 30, 2-Ethyl-5,7-dimethyl-3-((5′-(pyridin-2-yl)-2′-(2H-tetrazol-5-yl)-[1,1′-biphenyl]-4-yl)methyl)-3H-imidazo[4,5-b]pyridine] | 23.5% | 19.1 nM | 4.9 nM | 48.0% | 87.5% | 5.6 nM | – | 12.3% | 15.9 nM | 72.9% | 14.5 nM
CC1=NC2(CCCC2)C(=O)N1Cc1ccc(-c2cc(-c3ccccc3)ccc2-c2nn[nH]n2)cc1 [Example 110, 3-((6′-(2H-tetrazol-5-yl)-[1,1′:3′,1″-terphenyl]-4-yl)methyl)-2-methyl-1,3-diazaspiro[4.4]non-1-en-4-one] | – | > 100000 nM | 35.9 nM | 26.9% | – | – | – | 9.0% | 108 nM | 22.1% | 95.5 nM
CCCCC1=NC2(CCOCC2)C(=O)N1Cc1ccc(-c2cc(-c3ccccc3O)ccc2-c2nnn[nH]2)cc1 [Example 157] | 16.5% | 37.6 nM | 30.3 nM | 44.7% | – | – | 61.1 nM | 11.4% | 60.1 nM | – | –
CC1=NC2(CCCC2)C(=O)N1Cc1ccc(-c2cc(-c3cc(C)ccn3)ccc2-c2nn[nH]n2)cc1 [Example 111, 2-methyl-3-((5′-(4-methylpyridin-2-yl)-2′-(2H-tetrazol-5-yl)-[1,1′-biphenyl]-4-yl)methyl)-1,3-diazaspiro[4.4]non-1-en-4-one] | 24.1% | 22.3 nM | 6.4 nM | 63.3% | – | – | – | 15.7% | 12.6 nM | 80.7% | 14.7 nM
CCCCC1=NC2(CCOC2)C(=O)N1Cc1ccc(-c2cc(-c3ccccc3O)ccc2-c2nnn[nH]2)cc1 (single isomer, unassigned) [Example 150] | 14.6% | 105 nM | 13.7 nM | 45.6% | – | – | – | 17.2% | 20.7 nM | 65.7% | 76.9 nM
CCC1=NC2(CCOC2)C(=O)N1Cc1ccc(-c2cc(-c3ccccc3O)ccc2-c2nnn[nH]2)cc1 (single isomer, unassigned) [Example 167] | 32.0% | 91.5 nM | 36 nM | 78.8% | – | – | 58.3 nM | 32.4% | 165 nM | – | –
CCCC1=NC2(CCOC2)C(=O)N1Cc1ccc(-c2cc(-c3ccccc3)ccc2-c2nnn[nH]2)cc1 (single isomer, unassigned) [Example 162] | – | > 10000 nM | 147 nM | 31.9% | – | – | 373 nM | 8.9% | 235 nM | – | –
COc1ccnc(-c2ccc(-c3nn[nH]n3)c(-c3ccc(CN4C(=O)C5(CCCC5)N=C4C4CC4)cc3)c2)c1 [Example 119, 2-cyclopropyl-3-((5′-(4-methoxypyridin-2-yl)-2′-(2H-tetrazol-5-yl)-[1,1′-biphenyl]-4-yl)methyl)-1,3-diazaspiro[4.4]non-1-en-4-one] | 21.8% | 40.5 nM | 47.5 nM | 51.4% | – | – | – | 18.4% | 108 nM | 63.9% | 53.9 nM
CCc1nc2c(C)cc(C)nc2n1Cc1ncc(-c2cc(-c3cccc(C)c3)ccc2-c2nnn[nH]2)cn1 [Example 188, 2-ethyl-5,7-dimethyl-3-((5-(3′-methyl-4-(1H-tetrazol-5-yl)biphenyl-3-yl)pyrimidin-2-yl)methyl)-3H-imidazo[4,5-b]pyridine] | 17.2% | 33.1 nM | 41.7 nM | 53.3% | – | – | 24.6 nM | 24.2% | 173 nM | – | –
CCc1nc2c(C)cc(C)nc2n1Cc1ccc(-c2cc(-c3ccc(OC)cc3)ccc2-c2nn[nH]n2)cc1 [Example 14] | – | > 10000 nM | 10.3 nM | 20.8% | – | – | – | 8.1% | 14.5 nM | – | > 10000 nM
CCc1nc2c(C)cc(C)nc2n1Cc1ccc(-c2cc(N3CCCCC3)ccc2-c2nn[nH]n2)cc1 [Example 91] | – | > 100000 nM | 60.6 nM | 22.6% | – | – | – | – | > 100000 nM | – | > 10000 nM
CCc1nc2c(C)cc(C)nc2n1Cc1ccc(-c2cc(-c3ccccc3)ccc2C(=O)NS(C)(=O)=O)cc1 [Example 244] | 15.3% | 69.6 nM | 96.5 nM | 34.7% | – | – | 111 nM | 11.0% | 201 nM | – | –
